Results taken from patent US20120136005A1, “E[…] THE TREATMENT OF ANXIETY” (MERZ PHARMA GmbH & CO. KGaA, priority 2009, published 2012).
Entries after “also recorded” stand apart in the source; their conditions may differ.

Assays:
[1] = target: T1, 5-HT2a recombinant receptor (Homo sapiens, UniProt P28223); experiment: Aequorin cell line functional assay; assay type: cell-based; details: human recombinant cell lines; FIG. 1
T1 construct: expressed in transfected cells
Method: (§1) Aequorin cell lines expressing the 5-HT2a, 5-HT2b and 5-HT2c non-edited (ne) recombinant receptors were used to evaluate the functional activity of eltoprazine. Aequorin cells grown 18 h prior to the test in media without antibiotics were detached by gentle flushing with PBS-EDTA (5 mM EDTA), recovered by centrifugation and resuspended in “assay buffer” (DMEM/HAM's F12 with HEPES+0.1% BSA protease free). Cells were incubated at room temperature for at least 4 h with Coelenterazine h (Molecular Probes). The reference agonist used were 5-HT and α-methyl-5-HT. For agonist testing, 50 μl of cell suspension were injected on 50 μl of test compound or reference agonist plated in a 96-well plate. The resulting emission of light was recorded using the Hamamatsu Functional Drug Screening System 6000 (FDSS 6000).

[2] = target: T2, 5-HT2c non-edited (ne) recombinant receptor (Homo sapiens, UniProt P28335); experiment: Aequorin cell line functional assay; assay type: cell-based; details: human recombinant cell lines; FIG. 1
T2 construct: expressed in transfected cells
T2 sequence (P28335 33-458): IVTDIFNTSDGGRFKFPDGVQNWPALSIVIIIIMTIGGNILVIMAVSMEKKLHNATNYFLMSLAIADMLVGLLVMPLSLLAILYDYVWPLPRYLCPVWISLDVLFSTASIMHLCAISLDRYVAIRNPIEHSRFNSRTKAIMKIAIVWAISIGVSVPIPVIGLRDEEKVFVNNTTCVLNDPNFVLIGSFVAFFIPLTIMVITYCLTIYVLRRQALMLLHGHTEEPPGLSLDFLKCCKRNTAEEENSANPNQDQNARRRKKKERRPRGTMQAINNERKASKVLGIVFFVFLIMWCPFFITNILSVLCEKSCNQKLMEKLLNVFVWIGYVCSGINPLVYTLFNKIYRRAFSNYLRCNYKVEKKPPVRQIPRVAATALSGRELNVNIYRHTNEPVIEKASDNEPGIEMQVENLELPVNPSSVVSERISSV
Method: as §1

Sprague-Dawley rats = experiment: Elevated plus maze; assay type: in vivo; details: doses of 0.3125 and 1.25 mg/kg s.c.; FIG. 6
Method: For contextual fear conditioning, open field, fear potentiated startle and elevate plus maze, experimentally naive adult male Sprague-Dawley rats (250-300 g; Janvier, France) were housed in groups of four per cage. Colony room temperature and humidity were maintained respectively at 20±1° C. and 60±3%. Food and water were available ad libitum and the animals were kept under an alternating 12 h/12 h day-night cycle (lights on at 07.00) for at least 6 days before the experiments were started. All experiments were conducted during the light period of the day-night cycle. […]
The elevated plus maze, made from black polypropylene, consists of two open arms (50.8 cm×10.2 cm surrounded by 1.3 cm walls) and two enclosed arms (50.8×10.2 cm and 40.6 cm high walls), which extended form central platform (10.2×10.2 cm). […] Breaks of photo beam are recorded and analysed automatically using an IBM-PC running MED-PC software version IV (Med Associates). […] During the following 5 min period the number of entries into closed and open arms as well as time spent in each type of arm is recorded. An arm entry is recorded when all four paws entering the arm. The obtained results are expressed as mean±S.E.M. percent entries or percent time spent in open arms. […]
Percent of time spent in open arm are taken for statistical analysis. Data are analysed by one-way ANOVA followed by Dunnett's test.

T1 sequence (P28223 whole entry): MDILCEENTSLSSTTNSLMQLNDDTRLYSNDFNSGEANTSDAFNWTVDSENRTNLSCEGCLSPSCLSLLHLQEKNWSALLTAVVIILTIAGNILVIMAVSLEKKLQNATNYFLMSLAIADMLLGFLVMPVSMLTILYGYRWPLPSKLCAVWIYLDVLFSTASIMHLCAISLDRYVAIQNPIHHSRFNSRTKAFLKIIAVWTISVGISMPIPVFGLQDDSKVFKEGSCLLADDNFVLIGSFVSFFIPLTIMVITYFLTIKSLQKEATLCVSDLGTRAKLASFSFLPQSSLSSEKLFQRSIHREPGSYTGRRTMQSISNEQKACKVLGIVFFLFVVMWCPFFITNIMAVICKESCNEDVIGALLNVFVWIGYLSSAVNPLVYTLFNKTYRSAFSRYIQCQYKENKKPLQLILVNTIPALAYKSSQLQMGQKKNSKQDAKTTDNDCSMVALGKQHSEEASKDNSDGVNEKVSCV

c1cc2c(c(N3CCNCC3)c1)OCCO2 [eltoprazine, 1-(2,3-dihydro-1,4-benzodioxin-5-yl)piperazine]
functional activity at 5-HT2a receptor [1]: full agonist | functional activity at 5-HT2c receptor [2]: full agonist | time spent in the open arms of the elevated plus maze (Sprague-Dawley rats): reduced the time spent in the open arms; also recorded: anxiogenic-like effect
